Laboratory results: paper PMC7617869, “Molecular glues that inhibit deubiquitylase activity and inflammatory signaling” (Nature Structural & Molecular Biology, 2025)
Several values for one entry are separate records, joined by “and”; a condition that tells them apart may be missing. Equal entries are not always repeated.

Experiments:
BRISC = molecular target: T1, BRISC (Homo sapiens, UniProt P46736+Q15018+Q9NXR7); experiment: Compound library screening and hit validation (IQF diubiquitin, 1 nM BRISC); type: biochemical; settings: for BRISC, normalised activity (Ext. 1a): two replicate columns
T1 construct: made in house; host or cells: Spodoptera frugiperda (Sf9) insect cells, MultiBac
Experimental: (§1) Assays were performed in 384-well black flat-bottom low-flange plates (Corning, 35373) in buffer containing 50 mM HEPES–NaOH pH 7.0, 100 mM NaCl, 1 mg ml^−1 BSA, 1 mM DTT and 0.03% v/v Brij-35. Then, 10 μl of twofold concentrated enzyme stock was dispensed, followed by transfer of 200 nl of compounds (1 mM stock) using a 384-pin tool and a 15-min incubation at room temperature. Then, 10 μl of twofold concentrated substrate stock was added and the reaction was monitored by measuring fluorescence intensity (excitation, 540 nm; emission, 580 nm) after 20-min incubation at room temperature and ~50% of substrate was consumed. Orthogonal assays for verification of H20 and P12 hit compounds using USP2 (100 nM) and trypsin (125 nM) were performed in identical conditions.

USP2 = molecular target: T2, USP2 (Homo sapiens, UniProt O75604); experiment: USP2 IQF diubiquitin selectivity assay; type: biochemical; settings: for USP2, normalised activity (Ext. 1a): two replicate columns
T2 construct: His (N, cleaved yes); host or cells: Escherichia coli BL21(DE3)
T2 sequence (O75604 258-605 limits assumed): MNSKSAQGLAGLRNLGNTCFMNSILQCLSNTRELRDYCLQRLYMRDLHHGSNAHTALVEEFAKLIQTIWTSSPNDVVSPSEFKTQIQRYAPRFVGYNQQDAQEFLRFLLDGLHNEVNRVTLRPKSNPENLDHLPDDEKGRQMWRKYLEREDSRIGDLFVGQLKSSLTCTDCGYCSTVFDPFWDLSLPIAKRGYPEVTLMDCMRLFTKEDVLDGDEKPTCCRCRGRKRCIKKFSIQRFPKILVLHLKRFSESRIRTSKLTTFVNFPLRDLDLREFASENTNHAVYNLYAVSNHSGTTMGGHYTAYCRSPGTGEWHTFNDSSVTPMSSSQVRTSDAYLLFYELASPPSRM
Experimental: as §1, with “BRISC DUB activity was measured at room temperature using 1 nM BRISC and 500 nM IQF diubiquitin K63 substrate (LifeSensors, DU6303) in the presence of DMSO and compounds at 10 μM (final concentrations). Assays” for “Assays”
(§2) IQF assays were performed in DUB reaction buffer containing 50 mM HEPES–NaOH pH 7.0, 100 mM NaCl, 0.1 mg ml^−1 BSA, 1 mM DTT and 0.03% v/v Brij-35. […] The final concentration of BRISC WT, all BRISC mutants, HsBRISCΔLoop, MmBRISC and DrBRISCΔNΔC was 1 nM. Other enzymes were tested at the following concentrations: 5 nM ARISC (FL), 10 nM CfBRISCΔNΔC, 250 nM AMSH* (ref. [43]), 500 nM USP2 and 1 μM trypsin (Sigma, 9002-07-7). For Michaelis–Menten experiments, 1 nM BRISC with 0–1 μM IQF K63-linked diubiquitin substrate was used. Michaelis–Menten analyses and Lineweaver–Burk plots were calculated using GraphPad Prism (version 9.0).
(§3) To assess enzymatic activity, BRISC complexes were diluted to concentrations between 1 nM and 50 nM. […] Then, 20-μl enzyme reactions were carried out in 384-well black flat-bottom low-flange plates (Corning, 35373). DUB activity was measured using IQF K63-linked diubiquitin (LifeSensors, DU6303) at 50 nM. Cleaved diubiquitin was monitored by measuring fluorescence intensity (excitation, 544 nm; emission, 575 nm; dichroic mirror, 560 nm). Fluorescence intensity was measured every minute for 30 min at 30 °C. Fluorescence intensity units were plotted against time to generate a linear reaction progress curve, where the initial velocity (V0) corresponds to the gradient of the curve (typically achieved within 15 min). IC50 values were calculated using the GraphPad Prism (version 9.0) built-in dose–response equation for inhibitor concentration versus response (variable slope).

trypsin = experiment: Trypsin IQF diubiquitin selectivity assay; type: biochemical; settings: for TRYPSIN, normalised activity (Ext. 1a): two replicate columns
Experimental: as §1, with “BRISC DUB activity was measured at room temperature using 1 nM BRISC and 500 nM IQF diubiquitin K63 substrate (LifeSensors, DU6303) in the presence of DMSO and compounds at 10 μM (final concentrations). Assays” for “Assays”
as §2, §3

[1] = tested on: IFN-stimulated response elements (ISRE) in THP-1 cells; experiment: THP-1 ISRE luciferase reporter, IFNα2 stimulation; type: cell-based, human
Experimental: (§4) THP-1 in vitro experiments
(§5) THP-1-DualTM cells (InvivoGen), derived from a human monocytic cell line, isolated from a patient with acute monocytic leukaemia, were cultured as per manufacturer’s guidance. Cells were seeded at 1x10^6 cells/mL in RPMI1640 media containing 10% fetal bovine serum (FBS), 1% penicillin-streptomycin (PS) (Gibco Laboratories) with DMSO (0.1%) (control) or in media containing JMS-175- […]
(§6) ng/mL) (Merck Life Science), ODN 2216 (1 µM) (Miltenyi Biotec), or Poly:IC (1 µg/mL) (InvivoGen).
(§7) Tofacitinib (Cambridge Biosciences) at 0.4 µM was used for comparison against a known JAK inhibitor.
(§8) Cells were centrifuged at 300 g for 5 minutes. Supernatant was removed and subjected to simultaneous study of the NF -κB pathway, by monitoring the activity of secreted alkaline phosphatase reporter (SEAP), and the IRF pathway, by assessing the activity o f a secreted Lucia luciferase using QUANTI - Blue ™ Solution and QUANTI -Luc™ 4 Lucia/Gaussia (InvivoGen), respectively, as per manufacturer’s instructions. Pelleted cells were used for FACS analysis using IFNα/β R1 APC-conjugated antibody or isotype control (Biotechne, FAB245A and IC002A), or unstained staining procedure with and without Zombie GreenTM (Biolegend). Samples were analysed using CytoFlex LX (Beckman) (50,000 live cells per condition). Median fluorescence intensity for APC channel gated on single cell live cells was analysed and compared as a percentage to control (no stimulation condition). […]

[2] = tested on: ISRE in THP-1 cells (TLR3 agonist polyI:C); experiment: THP-1 ISRE luciferase reporter, polyI:C stimulation; type: cell-based, human; settings: polyI:C 1 µg/mL, 0.4 μM, 16 h
Experimental: as §4, §5, §6, §7, §8

[3] = tested on: ISRE in THP-1 cells (TLR9 agonist ODN 2216); experiment: THP-1 ISRE luciferase reporter, ODN 2216 stimulation; type: cell-based, human; settings: ODN 2216 1 µM, 0.4 μM, 16 h
Experimental: as §4, §5, §6, §7, §8

[4] = tested on: NF-κB pathway in THP-1 cells; experiment: THP-1 NF-κB pathway SEAP reporter, lipopolysaccharide stimulation; type: cell-based, human; settings: LPS + compound, three replicates
Experimental: as §4, §5, §6, §7, §8

THP-1 cells = experiment: THP-1 live cell percentage; type: cell-based; settings: male, human, 16 h, 0.4 µM
Experimental: as §4, §5, §6, §7, §8

[5] = tested on: IFNAR1 surface levels in THP-1 cells; experiment: THP-1 IFNAR1 surface levels (FACS); type: cell-based, human
Experimental: as §4, §5, §6, §7, §8

[6] = log [compound (μM)] 0.1938, listed as P12
[7] = log [compound (μM)] 0.4949, listed as P12
[8] = log [compound (μM)] 0.7959, listed as P12
[9] = log [compound (μM)] 1.0969, listed as P12
[10] = log [compound (μM)] 1.3979, listed as P12
[11] = log [compound (μM)] 1.6990, listed as P12
[12] = log [compound (μM)] 2.0000, listed as P12
[13] = log [compound (μM)] -0.1072, listed as P12
[14] = log [compound (μM)] -0.4082, listed as P12
[15] = log [compound (μM)] -0.7093, listed as P12
[16] = log [compound (μM)] -1.0103, listed as P12
[17] = log [compound (μM)] -2.0103, normalisation point

SMILES: Nc1ccc(C(=O)Nc2cccc(-c3nc(N4CCOCC4)c4oc5ncccc5c4n3)c2)cn1 [YM201636, reference compound]
- inhibition of BRISC, hit validation dose response (BRISC; BRISC 1 nM): inhibited
- BRISC, normalised activity (Ext. 1a) (BRISC; [6]): 0.9184 and 0.9164
- BRISC, normalised activity (Ext. 1a) (BRISC; [7]): 0.8260 and 0.8472
- BRISC, normalised activity (Ext. 1a) (BRISC; [8]): 0.7220 and 0.6802
- BRISC, normalised activity (Ext. 1a) (BRISC; [9]): 0.5475 and 0.6138
- BRISC, normalised activity (Ext. 1a) (BRISC; [10]): 0.4196 and 0.4274
- BRISC, normalised activity (Ext. 1a) (BRISC; [11]): 0.2277 and 0.3017
- BRISC, normalised activity (Ext. 1a) (BRISC; [12]): 0.1348 and 0.1662
- BRISC, normalised activity (Ext. 1a) (BRISC; [13]): 0.9841 and 0.9959
- BRISC, normalised activity (Ext. 1a) (BRISC; [14]): 1.0145 and 0.9950
- BRISC, normalised activity (Ext. 1a) (BRISC; [15]): 0.9264 and 1.0022
- BRISC, normalised activity (Ext. 1a) (BRISC; [16]): 0.9725 and 0.9468
- BRISC, normalised activity (Ext. 1a) (BRISC; [17]): 1.0000
- inhibition of USP2 (USP2; IQF K63 diubiquitin substrate): inhibited
- USP2, normalised activity (Ext. 1a) (USP2; [6]): 0.9446 and 0.9072
- USP2, normalised activity (Ext. 1a) (USP2; [7]): 0.7366 and 0.8095
- USP2, normalised activity (Ext. 1a) (USP2; [8]): 0.5989 and 0.5952
- USP2, normalised activity (Ext. 1a) (USP2; [9]): 0.4578 and 0.4777
- USP2, normalised activity (Ext. 1a) (USP2; [10]): 0.2821 and 0.3159
- USP2, normalised activity (Ext. 1a) (USP2; [11]): 0.1157 and 0.1340
- USP2, normalised activity (Ext. 1a) (USP2; [12]): 0.0697 and 0.0548
- USP2, normalised activity (Ext. 1a) (USP2; [13]): 0.9974 and 0.9861
- USP2, normalised activity (Ext. 1a) (USP2; [14]): 1.0145 and 0.9995
- USP2, normalised activity (Ext. 1a) (USP2; [15]): 1.0193 and 1.0736
- USP2, normalised activity (Ext. 1a) (USP2; [16]): 0.9978 and 1.0361
- USP2, normalised activity (Ext. 1a) (USP2; [17]): 1.0000
- inhibition of trypsin (trypsin; IQF K63 diubiquitin substrate): inhibited
- TRYPSIN, normalised activity (Ext. 1a) (trypsin; [6]): 0.9684 and 0.9837
- TRYPSIN, normalised activity (Ext. 1a) (trypsin; [7]): 0.8434 and 0.8923
- TRYPSIN, normalised activity (Ext. 1a) (trypsin; [8]): 0.6993 and 0.7044
- TRYPSIN, normalised activity (Ext. 1a) (trypsin; [9]): 0.6731 and 0.7139
- TRYPSIN, normalised activity (Ext. 1a) (trypsin; [10]): 0.4990 and 0.5130
- TRYPSIN, normalised activity (Ext. 1a) (trypsin; [11]): 0.3403 and 0.4535
- TRYPSIN, normalised activity (Ext. 1a) (trypsin; [12]): 0.3318 and 0.3209
- TRYPSIN, normalised activity (Ext. 1a) (trypsin; [13]): 1.0347 and 0.9747
- TRYPSIN, normalised activity (Ext. 1a) (trypsin; [14]): 1.0259 and 0.9266
- TRYPSIN, normalised activity (Ext. 1a) (trypsin; [15]): 0.9472 and 0.9474
- TRYPSIN, normalised activity (Ext. 1a) (trypsin; [16]): 0.9224 and 0.9184
- TRYPSIN, normalised activity (Ext. 1a) (trypsin; [17]): 1.0000

SMILES: C[C@@H]1CCN(C(=O)CC#N)C[C@@H]1N(C)c1ncnc2[nH]ccc12 [tofacitinib, reference compound]
- ISRE luciferase reporter signal (Fig. 5a) ([1]; IFN + compound, replicate values): 1776.67 and 1732 and 1959.33 and 2178.33
- ISRE relative expression ([1]; hIFNα2 25 ng/ml, 0.4 μM, 16 h): potent effect
- ISRE luciferase signal in THP-1 supernatant [2]: not reduced
- ISRE luciferase signal in THP-1 supernatant ([2]; listed as Tofacitinib): 199.667 and 316.333 and 317.333
- ISRE luciferase signal in THP-1 supernatant [3]: not reduced
- ISRE luciferase signal in THP-1 supernatant ([3]; listed as Tofacitinib): 198.333 and 276 and 283.333
- NF-κB SEAP reporter signal [4]: 1.232 and 1.181 and 1.209
- percentage of live cells (THP-1 cells): 98.18%
- IFNAR1 surface levels (Fig. 5h) ([5]; IFN + compound, No IFN = 100): 59.2689 and 88.3889 and 79.9066
- IFNAR1 surface levels ([5]; THP-1, hIFNα2 25 ng/ml, 0.4 μM, 16 h): no significant reduction
